The record followed here is patent US20190055235A1, “SUBSTITUTED BICYCLIC COMPOUNDS AS BROMODOMAIN INHIBITORS” (ZENITH EPIGENETICS LTD., priority 2014, published 2019).

The structures appear in SMILES notation. Where only a bound is given, the exact number is not on record here.

Assay [1] addresses T1, Brd4 bromodomain 1 (BRD4(1)) (Homo sapiens, UniProt O60885).
T1 construct: N-terminally His-tagged bromodomains (BRD4(1) at 20 nM and BRD4(2) at 100 nM); made in house; host or cells: E. coli BL21(DE3)
The assay is described as follows: Inhibition of tetra-acetylated histone H4 binding to Brd4 bromodomain 1 (AlphaScreen). The conditions noted are these: His-tagged BRD4(1) at 20 nM, biotinylated tetra-acetylated histone H4 peptide, 30 min incubation. Here is the method:
Proteins were cloned and overexpressed with a N-terminal 6×His tag, then purified by nickel affinity followed by size exclusion chromatography. Briefly, E. coli BL21(DE3) cells were transformed with a recombinant expression vector encoding N-terminally Nickel affinity tagged bromodomains from Brd2, Brd3, Brd4. Cell cultures were incubated at 37° C. with shaking to the appropriate density and induced overnight with IPTG. The supernatant of lysed cells was loaded onto Ni-IDA column for purification. Eluted protein was pooled, concentrated and further purified by size exclusion chromatography. Fractions representing monomeric protein were pooled, concentrated, aliquoted, and frozen at −80° C. for use in subsequent experiments.
Binding of tetra-acetylated histone H4 peptide (Millipore) and BET bromodomains was confirmed by Amplified Luminescent Proximity Homogenous Assay (AlphaScreen). N-terminally His-tagged bromodomains (BRD4(1) at 20 nM and BRD4(2) at 100 nM) and biotinylated tetra-acetylated histone H4 (10-25 nM) were incubated in the presence of nickel chelate acceptor beads and streptavidin donor beads (PerkinAlmer, 6760000K) added to a final concentration of 2 μg/ml under green light in a white 96 well microtiter plate (Greiner). For inhibition assays, serially diluted compounds were added to the reaction mixtures in a 0.1% final concentrations of DMSO. Final buffer concentrations were 50 mM HEPES, 100 mM NaCl and 0.1% BSA buffer, pH 7.4 and optimized to 30 min incubation time. Assay plates were read at 570 nm on a Synergy H4 Plate Reader (Biotek). IC50 values were determined from a dose response curve.

Assay [2] concerns hIL-6 mRNA. The assay is described as follows: Inhibition of hIL-6 mRNA transcription in PMA-differentiated, LPS-stimulated U937 cells. The conditions noted are these: Homo sapiens, U-937; U937 cells differentiated with PMA, 1 h pretreatment, 1 ug/mL LPS, 3 h, real-time PCR; read-out: IL-6 activity. It is filed as cell-based. The method, then: Human leukemic monocyte lymphoma U937 cells (CRL-1593.2) were plated at a density of 3.2×10^4 cells per well in a 96-well plate in 100 μL RPMI-1640 containing 10% FBS and penicillin/streptomycin, and were differentiated into macrophages for 3 days in 60 ng/mL PMA ([…]) at 37° C. in 5% CO2 prior to the addition of compound. The cells were pretreated for 1 h with increasing concentrations of test compound in 0.1% DMSO prior to stimulation with 1 ug/mL lipopolysaccharide from Escherichia coli. Triplicate wells were used for each concentration. The cells were incubated at 37′C, 5% CO2 for 3 h before the cells were harvested. At time of harvest, media was removed and cells were rinsed in 200 μL PBS. Cells were harvested using the mRNA Catcher PLUS kit according to manufacturer's instructions. The eluted mRNA was then used in a one-step quantitative real-time PCR reaction using components of the RNA UltraSense™ One-Step Kit (Life Technologies) together with Applied Biosystems TaqMan® primer-probes for hIL-6 and Cyclophilin. Real-time PCR plates were run on a ViiA™7 real time PCR machine (Applied Biosystems). The data was analyzed, and the Ct values for hIL-6 were normalized to an internal control prior to determining the fold expression of each sample, relative to the control.
A general note: Quantitative PCR measures a nucleic acid by following its amplification.

For assay [3], the system named is hIL-17 mRNA. The experiment in a line: Inhibition of hIL-17 mRNA transcription in OKT3-stimulated human peripheral blood mononuclear cells. It is filed as cell-based. The conditions noted are these: human PBMC, 1 h pretreatment, OKT3 antibody, 6 h, real-time PCR; read-out: IL-17 activity. Here is the method: Human peripheral blood mononuclear cells were plated (2.0×10^5 cells per well) in a 96-well plate in 45 μL OpTimizer T Cell expansion media (Life Technologies) containing 20 ng/ml IL-2 and penicillin/streptomycin. The cells were treated with increasing concentrations of the test compound or DMSO (0.1%), and were incubated at 37° C., 5% CO2 for 1 h before addition of 10× stock OKT3 antibody at 10 ug/ml in media. Triplicate wells were used for each concentration. Cells were incubated at 37° C., 5% CO2 for 6 h before the cells were harvested. At time of harvest, cells were pelleted by centrifugation at 800 rpm for 5 min. Cells were harvested using the mRNA Catcher PLUS kit according to manufacturer's instructions. The eluted mRNA was then used in a one-step quantitative real-time PCR reaction, using components of the RNA UltraSense™ One-Step Kit (Life Technologies) together with Applied Biosystems TaqMan® primer-probes for hIL-17 and Cyclophilin. Real-time PCR plates were run on a ViiA™7 real time PCR machine (Applied Biosystems). The data was analyzed, and the Ct values for hIL-17 were normalized to an internal control prior to determining the fold induction of each unknown sample, relative to the control.

Consider `Cc1noc(C)c1-c1ccc2[nH]nc(CN3CCC(F)(F)CC3)c2c1` [Example 9, 4-(3-((4,4-Difluoropiperidin-1-yl)methyl)-1H-indazol-5-yl)-3,5-dimethylisoxazole], for which the IC50 is ≤ 300 nM in assay [1], 300 to 3000 nM in assay [2] and 300 to 3000 nM in assay [3].

As to `COC1CCN(Cc2n[nH]c3ccc(-c4c(C)noc4C)cc23)CC1` [Example 13, 4-[3-[(4-Methoxy-1-piperidyl)methyl]-1H-indazol-5-yl]-3,5-dimethyl-isoxazole], the IC50 in assay [1] and in assay [2] was 300 to 3000 nM in each case.

With `COC(=O)c1ccc(Cn2c(C)nc3ncc(-c4c(C)noc4C)cc32)cc1` [Example 3, Methyl 4-((6-(3,5-dimethylisoxazol-4-yl)-2-methyl-1H-imidazo[4,5-b]pyridin-1-yl)methyl)benzoate], the IC50 in assay [1] was ≤ 300 nM; in assay [2], 300 to 3000 nM.

Regarding `Cc1noc(C)c1-c1ccc2[nH]nc(CN3CCOCC3)c2c1` [Example 14, 4-[[5-(3,5-Dimethylisoxazol-4-yl)-1H-indazol-3-yl]methyl]morpholine], the values for the IC50 in assay [1] and in assay [2] were 300 to 3000 nM and 3000 to 30000 nM, respectively.

On to `Cc1noc(C)c1-c1cnc2nc(C)n(Cc3ccc([S+](C)[O-])cc3)c2c1` (centres unmarked) [Example 5, 3,5-Dimethyl-4-(2-methyl-1-(4-(methylsulfinyl)benzyl)-1H-imidazo[4,5-b]pyridin-6-yl)isoxazole], for which the IC50 in assay [1] is ≤ 300 nM.

As for `Cc1noc(C)c1-c1ccc2[nH]nc(CN3CCN(C)CC3)c2c1` [Example 11, 3,5-Dimethyl-4-[3-[(4-methylpiperazin-1-yl)methyl]-1H-indazol-5-yl]isoxazole], the IC50 in assay [1] lay within 300 to 3000 nM; in assay [2], 3000 to 30000 nM; in assay [3], 300 to 3000 nM.

For the molecule `CSc1cccc(Cn2c(C)nc3ncc(-c4c(C)noc4C)cc32)c1` [Example 4, 3,5-Dimethyl-4-(2-methyl-1-(3-(methylthio)benzyl)-1H-imidazo[4,5-b]pyridin-6-yl)isoxazole], the results for the IC50 in assay [1], in assay [2] and in assay [3] were ≤ 300 nM, 300 to 3000 nM and 3000 to 30000 nM, respectively.

For the molecule `Cc1noc(C)c1-c1ccc2[nH]nc(CN3CCCCC3)c2c1` [Example 10, 3,5-Dimethyl-4-[3-(1-piperidylmethyl)-1H-indazol-5-yl]isoxazole], the values for the IC50 in assay [1], in assay [2] and in assay [3] were ≤ 300 nM, 300 to 3000 nM and 300 to 3000 nM, respectively.

Take `COC(=O)c1cccc(Cn2c(C)nc3ncc(-c4c(C)noc4C)cc32)c1` [Example 2, Methyl 3-((6-(3,5-dimethylisoxazol-4-yl)-2-methyl-1H-imidazo[4,5-b]pyridin-1-yl)methyl)benzoate]: the values for the IC50 in assay [1], in assay [2] and in assay [3] were ≤ 300 nM, 300 to 3000 nM and 300 to 3000 nM, respectively.

Consider `Cc1noc(C)c1-c1cnc2nc(C)n(Cc3cccc(C(=O)O)c3)c2c1` [Example 6, 3-((6-(3,5-Dimethylisoxazol-4-yl)-2-methyl-1H-imidazo[4,5-b]pyridin-1-yl)methyl)benzoic acid], for which, in assay [1], the IC50 is 3000 to 30000 nM.

Take `Cc1noc(CO)c1-c1cnc2nc(C)n(Cc3ccccc3)c2c1` [Example 7, (4-(1-Benzyl-2-methyl-1H-imidazo[4,5-b]pyridin-6-yl)-3-methylisoxazol-5-yl)methanol]: the results for the IC50 in assay [1] and in assay [2] were ≤ 300 nM and 300 to 3000 nM, respectively.

For the molecule `Cc1noc(C)c1-c1ccc2[nH]nc(CN3CCC(C#N)CC3)c2c1` [Example 12, 1-[[5-(3,5-Dimethylisoxazol-4-yl)-1H-indazol-3-yl]methyl]piperidine-4-carbonitrile], the IC50 in assay [1] is ≤ 300 nM; in assay [2], 300 to 3000 nM.

As to `CSc1ccc(Cn2c(C)nc3ncc(-c4c(C)noc4C)cc32)cc1` [Example 1, 3,5-Dimethyl-4-(2-methyl-1-(4-(methylthio)benzyl)-1H-imidazo[4,5-b]pyridin-6-yl)isoxazole], the figures for the IC50 in assay [1], in assay [2] and in assay [3] were ≤ 300 nM, 300 to 3000 nM and 300 to 3000 nM, respectively.

In the case of `Cc1nocc1-c1cnc2nc(C)n(Cc3ccccc3)c2c1` [Example 8, 4-(1-Benzyl-2-methyl-1H-imidazo[4,5-b]pyridin-6-yl)-3-methylisoxazole], the IC50 in assay [1] was ≤ 300 nM; in assay [2], 300 to 3000 nM.
